Read-outs that look alike come from different tables or passages of the source.
System: skin from a "hairless" mouse or human cadaver
Test: transdermal absorption (skin permeation) of nitroglycerin from polymer matrix dosage units, procedure of Keshary and Chien
Conditions: for Enhancement Factor: Table XIV, 15% W/W nitroglycerin in DC-382 matrix
Text: Enhancing Factor is defined as the ratio of normalized permeation rate [in mcg/cm²/hr] of a dosage unit of this invention with skin permeation enhancer/the normalized permeation rate of a corresponding dosage unit without enhancer in the adhesive layer.
Pharm., 10 (6) 883-913(1984).

SMILES | Enhancing Factor (0.8 mg/cm²) | Enhancing Factor (1.59 mg/cm²) | Enhancing Factor (3.18 mg/cm²) | Skin Permeation Rate Without | other results
CCCCCCCCCCCCCC(=O)N(C)C [Enhancer H, Myristic acid, N,N-dimethylamide] | 1.3 | 2.0 | 1.6 | – | Enhancing Factor (4.78 mg/cm²): 1.5
CCCCCCCCCC[S+](C)[O-] (centres unmarked) [Enhancer G, Decylmethyl sulfoxide] | 1.61 | 1.87 | – | – | Enhancing Factor (2.4 mg/cm²): 2.02; Enhancing Factor (5 mg/cm²): 1.36; Enhancing Factor (10 mg/cm²): 1.22
O=[N+]([O-])OCC(CO[N+](=O)[O-])O[N+](=O)[O-] [NITROGLYCERIN, nitroglycerin, reference compound] | – | – | – | – | Enhancement Factor (enhancers (mg/cm²): (+) menthol 0.8 + capric acid 0.8 + Methyl Salicylate 0.8): 3.36; Enhancement Factor (enhancers (mg/cm²): (+) menthol 0.8 + capric acid 0.8 + Oleyl alcohol 0.8): 5.29; Enhancement Factor (enhancers (mg/cm²): (+) menthol 0.8 + capric acid 0.8 + Oleyl alcohol 1.6): 4.61; Enhancement Factor (enhancers (mg/cm²): (+) menthol 0.8 + capric acid 0.8 + Salicylic acid 0.8): 3.47
CCCCCCCC/C=C\CCCCCCCCO [Enhancer E, Oleyl alcohol] | 1.69 | 2.82 | 2.65 | – | –
CCCCCCCCCCCCCC(=O)OCC(O)COC(=O)CCCCCCCCCCCCC (racemic) [1,3-Dimyristoyl-RAC-Glycerol] | – | – | – | 34.1 ± 1.62 mcg/cm²/hr | Enhancing Factor (1.6 mg/cm²): 0.94; Skin Permeation Rate With (1.6 mg/cm²): 32.13 ± 6.94 mcg/cm²/hr
CCCCCCCC/C=C\CCCCCCCC(=O)OCCC [Enhancer D, Propyl oleate] | 1.22 | 2.43 | 3.08 | – | Enhancing Factor (4.78 mg/cm²): 3.78
CCCCCCCCCC(=O)O [Enhancer B, Decanoic acid] | 2.59 | 4.11 | 4.41 | – | –
CCCCCCCCCCCCCC(=O)OCC(CO)OC(=O)CCCCCCCCCCCCC (racemic) [1,2-Dimyristoyl-RAC-Glycerol] | – | – | – | 39.4 ± 4.32 mcg/cm²/hr | Enhancing Factor (1.6 mg/cm²): 1.03; Skin Permeation Rate With (1.6 mg/cm²): 40.64 ± 4.27 mcg/cm²/hr

The next lines start with results.

Enhancing Factor (0.8 mg/cm²) | Enhancing Factor (1.59 mg/cm²) | Enhancing Factor (3.18 mg/cm²) | Skin Permeation Rate Without | SMILES | other results
1.67 | 1.92 | 3.07 | – | CCCCCCCCCCCCCC(=O)OCCC [Enhancer C, Propyl myristate] | Enhancing Factor (4.78 mg/cm²): 3.41
– | – | – | 34.1 ± 1.62 mcg/cm²/hr | CCCCCCCCCCCCCC(=O)OCC(O)CO (racemic) [1-Monomyristoly-RAC-Glycerol] | Skin Permeation Rate With: 29.88 ± 3.84 mcg/cm²/hr
– | – | – | 34.1 ± 1.62 mcg/cm²/hr | CCCCCCCCCCCCCCCC(=O)OCC(O)CO (racemic) [1-Monopalmitoyl-RAC-Glycerol] | Enhancing Factor (1.6 mg/cm²): 0.86; Skin Permeation Rate With (1.6 mg/cm²): 29.39 ± 1.76 mcg/cm²/hr
